# In patent US12516039B2, “N-linked isoquinoline amides as LRRK2 inhibitors, pharmaceutical compositions, and uses thereof” (Merck Sharp & Dohme LLC, priority 2020, dated 2026):
# Target: T1, GST-tagged truncated human mutant G2019S LRRK2 (Homo sapiens, UniProt Q5S007, G2019S)
# T1 construct: GST-tagged truncated human mutant G2019S LRRK2; purchased Life Technologies Corporation (Carlsbad, CA)
# Test: LRRK2 G2019S Km ATP LanthaScreen assay
# Type: biochemical
# Conditions: 134 μM ATP (Km ATP), LRRKtide substrate, mean of several tests
# Outline: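 GST-tagged truncated human LRRK2 G2019S (1.25 nM enzyme solution) was preincubated 15 min with compound, then reacted 90 min at ambient temperature with fluorescein-LRRKtide (400 nM solution) and 134 μM ATP (Km) in Tris pH 8.5. EDTA stop; Tb anti-phospho-LRRKtide TR-FRET (520/495 ratio). IC50 from 4-parameter fits, mean of several runs.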
# T1 sequence (Q5S007 970-2527 G2019S limits assumed): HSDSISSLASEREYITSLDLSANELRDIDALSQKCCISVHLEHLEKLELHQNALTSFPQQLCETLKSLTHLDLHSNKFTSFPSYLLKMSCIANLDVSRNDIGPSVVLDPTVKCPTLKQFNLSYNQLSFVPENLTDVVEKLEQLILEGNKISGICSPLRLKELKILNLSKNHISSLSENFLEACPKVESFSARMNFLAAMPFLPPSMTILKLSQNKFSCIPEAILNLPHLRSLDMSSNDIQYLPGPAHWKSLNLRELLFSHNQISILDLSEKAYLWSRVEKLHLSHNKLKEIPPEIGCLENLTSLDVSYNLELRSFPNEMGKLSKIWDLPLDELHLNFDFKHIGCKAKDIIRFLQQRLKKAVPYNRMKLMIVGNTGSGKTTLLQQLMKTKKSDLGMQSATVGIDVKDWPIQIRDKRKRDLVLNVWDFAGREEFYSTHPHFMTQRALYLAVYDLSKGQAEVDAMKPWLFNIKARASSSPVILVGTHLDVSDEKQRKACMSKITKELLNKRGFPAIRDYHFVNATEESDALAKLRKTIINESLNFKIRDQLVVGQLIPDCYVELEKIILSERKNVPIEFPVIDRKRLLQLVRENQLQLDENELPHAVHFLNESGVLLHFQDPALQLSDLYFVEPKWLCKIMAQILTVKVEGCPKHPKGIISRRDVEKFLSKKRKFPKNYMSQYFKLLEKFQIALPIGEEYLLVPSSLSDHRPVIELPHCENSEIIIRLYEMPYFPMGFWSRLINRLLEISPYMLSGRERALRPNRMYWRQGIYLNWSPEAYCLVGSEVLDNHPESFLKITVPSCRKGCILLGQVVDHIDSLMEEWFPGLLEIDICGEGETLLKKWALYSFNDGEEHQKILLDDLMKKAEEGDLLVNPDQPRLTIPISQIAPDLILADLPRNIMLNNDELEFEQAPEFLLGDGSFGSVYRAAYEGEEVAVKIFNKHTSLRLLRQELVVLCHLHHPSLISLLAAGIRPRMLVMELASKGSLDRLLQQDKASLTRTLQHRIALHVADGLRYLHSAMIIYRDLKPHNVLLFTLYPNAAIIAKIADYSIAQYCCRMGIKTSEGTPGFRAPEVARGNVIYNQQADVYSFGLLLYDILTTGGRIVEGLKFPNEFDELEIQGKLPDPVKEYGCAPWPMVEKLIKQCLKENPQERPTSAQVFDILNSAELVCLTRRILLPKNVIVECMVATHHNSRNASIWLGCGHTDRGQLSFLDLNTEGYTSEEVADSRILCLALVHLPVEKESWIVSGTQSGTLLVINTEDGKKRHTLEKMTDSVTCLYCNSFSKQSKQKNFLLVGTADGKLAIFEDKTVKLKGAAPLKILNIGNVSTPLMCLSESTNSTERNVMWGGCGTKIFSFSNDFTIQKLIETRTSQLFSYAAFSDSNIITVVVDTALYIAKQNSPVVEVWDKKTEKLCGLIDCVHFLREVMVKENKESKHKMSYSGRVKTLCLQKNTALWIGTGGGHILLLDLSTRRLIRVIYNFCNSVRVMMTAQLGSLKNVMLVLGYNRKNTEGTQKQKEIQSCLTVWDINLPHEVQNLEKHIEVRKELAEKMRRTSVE
row,SMILES,LRRK2 pIC50
1,CC1(N2CCN(c3cc4cc(NC(=O)C5CCCO5)ncc4cc3Cl)CC2)COCC1O (stereo not drawn) [Ex-9.4],8.40

# Same assay, conditions: 134 μM ATP (Km ATP), LRRKtide substrate, mean of several tests, read-out: LRRK2 pIC50 (converted)
row,SMILES,IC50 [nM]
1,"Cn1ccc(C2CC2C(=O)Nc2cc3cc(N4CCN(C5(C)COCC5F)CC4)c(Cl)cc3cn2)n1 (single isomer, unassigned) [Ex-10.18, (1R,2R or 1S,2S)-N-[7-chloro-6-[4-((3R,4R or 3S,4S)-4-fluoro-3-methyl-tetrahydrofuran-3-yl)piperazin-1-yl]-3-isoquinolyl]-2-(1-methylpyrazol-3-yl)cyclopropanecarboxamide]",8.71
2,"N#CC1CCN(c2cc3cc(NC(=O)C4CC4c4cncnc4)ncc3cc2Cl)CC1 (single isomer, unassigned) [Ex-5.18]",67.6
3,"Cc1cc2cnc(NC(=O)C3CC34CCOCC4)cc2cc1N1CCN(C2(C)COCC2O)CC1 (single isomer, unassigned) [Ex-6.1]",0.355
4,"CC1(N2CCN(c3cc4cc(NC(=O)C5CC56CCC(F)(F)CC6)ncc4cc3Cl)CC2)COCC1O (single isomer, unassigned) [Ex-1.20, (1R or 1S)-N-(7-chloro-6-(4-((3R,4R or 3S,4S)-4-hydroxy-3-methyltetrahydrofuran-3-yl)piperazin-1-yl)isoquinolin-3-yl)-6,6-difluorospiro[2.5]octane-1-carboxamide]",63.1
5,"CC1(N2CCN(c3cc4cc(NC(=O)C5CC56CCC6)ncc4cc3Cl)CC2)COCC1O (single isomer, unassigned) [Ex-1.7, (1R or 1S)-N-(7-chloro-6-(4-((3R,4R or 3S,4S)-4-hydroxy-3-methyltetrahydrofuran-3-yl)piperazin-1-yl)isoquinolin-3-yl)spiro[2.3]hexane-1-carboxamide]",6.61
6,"CC1(N2CCN(c3cc4cc(NC(=O)C5CC5C5CCOCC5)ncc4cc3Cl)CC2)COCC1O (single isomer, unassigned) [Ex-10.31, (1R,2R or 1S,2S)-N-[7-chloro-6-[4-((3R,4R or 3S,4S)-4-hydroxy-3-methyl-tetrahydrofuran-3-yl)piperazin-1-yl]-3-isoquinolyl]-2-tetrahydropyran-4-yl-cyclopropanecarboxamide]",0.0813
7,"CC(C)(O)C1CC1C(=O)Nc1cc2cc(N3CCN(C4(C)COCC4O)CC3)c(Cl)cc2cn1 (single isomer, unassigned) [Ex-10.5]",4.79
8,"COC1COCC1(C)N1CCN(c2cc3cc(NC(=O)C4CC45CCOCC5)ncc3cc2Cl)CC1 (single isomer, unassigned) [Ex-5.3]",0.372
9,"CC1(N2CCN(c3cc4cc(NC(=O)C5CC56CC6)ncc4cc3Cl)CC2)COCC1O (single isomer, unassigned) [Ex-2.12, (R or S)-N-(7-chloro-6-(4-((3R,4R or 3S,4S)-4-hydroxy-3-methyltetrahydrofuran-3-yl)piperazin-1-yl)isoquinolin-3-yl)spiro[2.2]pentane-1-carboxamide]",0.513
10,"CC1(N2CCN(c3cc4cc(NC(=O)C5CC56CCOCC6)ncc4cc3Cl)CC2)CCOC1 (single isomer, unassigned) [Ex-5.14]",302
11,"CC1C(C(=O)Nc2cc3cc(N4CCN(C5(C)COCC5O)CC4)c(Cl)cc3cn2)C1c1ccccn1 (single isomer, unassigned) [Ex-11.4, (1R,2R,3R, or 1R,2S,3R, or 1S,2R,3S, or 1S,2S,3S)-N-(7-chloro-6-(4-((3R,4R or 3S,4S)-4-hydroxy-3-methyltetrahydrofuran-3-yl)piperazin-1-yl)isoquinolin-3-yl)-2-methyl-3-(pyridin-2-yl)cyclopropane-1-carboxamide]",0.977
12,"Cc1cc2cnc(NC(=O)C3CC34CCOC4)cc2cc1N1CCN(C2(C)COCC2O)CC1 (single isomer, unassigned) [Ex-6.9, (1R, 3S or 1S,3R, or 1R,3S, or 1S,3S)-N-(6-(4-((3R, 4R or 3S,4S)-4-hydroxy-3-methyltetrahydrofuran-3-yl)piperazin-1-yl)-7-methylisoquinolin-3-yl)-5-oxaspiro[2.4]heptane-1-carboxamide]",324
13,"CC1(N2CCN(c3cc4cc(NC(=O)C5CC56CC6)ncc4cc3Cl)CC2)COCC1O (single isomer, unassigned) [Ex-2.13, (R or S)-N-(7-chloro-6-(4-((3R,4R or 3S,4S)-4-hydroxy-3-methyltetrahydrofuran-3-yl)piperazin-1-yl)isoquinolin-3-yl)spiro[2.2]pentane-1-carboxamide]",33.9
14,"CC1(C#N)CCN(c2cc3cc(NC(=O)C4CC4c4cncnc4)ncc3cc2Cl)CC1 (single isomer, unassigned) [Ex-5.16]",427
15,"CCC1C(C(=O)Nc2cc3cc(N4CCN(C5(C)COCC5F)CC4)c(Cl)cc3cn2)C1c1ccn(C)n1 (single isomer, unassigned) [Ex-10.49, (1R,2R,3R, 1R,2S,3R, or 1S,2R,3S, or 1S,2S,3S)-N-[7-chloro-6-[4-((3R,4R or 3S,4S)-4-fluoro-3-methyl-tetrahydrofuran-3-yl)piperazin-1-yl]-3-isoquinolyl]-2-ethyl-3-(1-methylpyrazol-3-yl)cyclopropanecarboxamide]",0.0813
16,"CC1(C#N)CCN(c2cc3cc(NC(=O)C4CC4c4cncnc4)ncc3cc2Cl)CC1 (single isomer, unassigned) [Ex-5.15]",6.17
17,"Cc1cc2cnc(NC(=O)C3CC3c3ccccn3)cc2cc1N1CCN(C2(C)CCOC2)CC1 (single isomer, unassigned) [Ex-9.18]",100
18,"CCC1C(C(=O)Nc2cc3cc(N4CCN(C5(C)COCC5F)CC4)c(Cl)cc3cn2)C1c1ccn(C)n1 (single isomer, unassigned) [Ex-10.51, (1R,2R,3R, 1R,2S,3R, or 1S,2R,3S, or 1S,2S,3S)-N-[7-chloro-6-[4-((3R,4R or 3S,4S)-4-fluoro-3-methyl-tetrahydrofuran-3-yl)piperazin-1-yl]-3-isoquinolyl]-2-ethyl-3-(1-methylpyrazol-3-yl)cyclopropanecarboxamide]",0.0813
19,"Cc1cc2cnc(NC(=O)C3CC34CCOC4)cc2cc1N1CCN(C2(C)COCC2O)CC1 (single isomer, unassigned) [Ex-6.8, (1R, 3S or 1S,3R, or 1R,3S, or 1S,3S)-N-(6-(4-((3R, 4R or 3S,4S)-4-hydroxy-3-methyltetrahydrofuran-3-yl)piperazin-1-yl)-7-methylisoquinolin-3-yl)-5-oxaspiro[2.4]heptane-1-carboxamide]",631
20,"CCC1C(C(=O)Nc2cc3cc(N4CCN(C5(C)COCC5F)CC4)c(Cl)cc3cn2)C1c1ccn(C)n1 (single isomer, unassigned) [Ex-10.52, (1R,2R,3R, 1R,2S,3R, or 1S,2R,3S, or 1S,2S,3S)-N-[7-chloro-6-[4-((3R,4R or 3S,4S)-4-fluoro-3-methyl-tetrahydrofuran-3-yl)piperazin-1-yl]-3-isoquinolyl]-2-ethyl-3-(1-methylpyrazol-3-yl)cyclopropanecarboxamide]",0.603
21,"CC1(N2CCN(c3cc4cc(NC(=O)C5CCC(F)(F)CO5)ncc4cc3Cl)CC2)COCC1O (single isomer, unassigned) [Ex-10.1, (2R or 2S)-N-(7-chloro-6-((3R, 4R or 3S, 4S)-4-(4-hydroxy-3-methyltetrahydrofuran-3-yl)piperazin-1-yl)isoquinolin-3-yl)-5,5-difluorotetrahydro-2H-pyran-2-carboxamide]",0.933
22,"CC1(N2CCN(c3cc4cc(NC(=O)C5CC56CC6)ncc4cc3Cl)CC2)COCC1F (single isomer, unassigned) [Ex-10.79, (R or S)-N-[7-chloro-6-[4-((3R,4R or 3S,4S)-4-fluoro-3-methyl-tetrahydrofuran-3-yl)piperazin-1-yl]-3-isoquinolyl]spiro[2.2]pentane-2-carboxamide]",0.0813
23,"COC1COCC1N1CCN(c2cc3cc(NC(=O)C4CC45CCOCC5)ncc3cc2Cl)CC1 (single isomer, unassigned) [Ex-5.8]",191
24,"Cc1cc2cnc(NC(=O)C3CC34CCOC4)cc2cc1N1CCN(C2(C)COCC2O)CC1 (single isomer, unassigned) [Ex-6.3, (1R, 3S or 1S,3R, or 1R,3S, or 1S,3S)-N-(6-(4-((3R, 4R or 3S,4S)-4-hydroxy-3-methyltetrahydrofuran-3-yl)piperazin-1-yl)-7-methylisoquinolin-3-yl)-5-oxaspiro[2.4]heptane-1-carboxamide]",0.832
25,"COC1COCC1N1CCN(c2cc3cc(NC(=O)C4CC45CCOCC5)ncc3cc2Cl)CC1 (single isomer, unassigned) [Ex-5.10]",38
26,"CC1(N2CCN(c3cc4cc(NC(=O)C5CC5C5CCOCC5)ncc4cc3Cl)CC2)COCC1F (single isomer, unassigned) [Ex-10.69, (1R,2R or 1S,2S)-N-[7-chloro-6-[4-((3R,4R or 3S,3S)-4-fluoro-3-methyl-tetrahydrofuran-3-yl)piperazin-1-yl]-3-isoquinolyl]-2-tetrahydropyran-4-yl-cyclopropanecarboxamide]",0.0813
27,"CC1(N2CCN(c3cc4cc(NC(=O)C5CC56CCCOC6)ncc4cc3Cl)CC2)COCC1O (single isomer, unassigned) [Ex-1.17, (1R,3S, or 1R,3R, or 1S,3S, or 1S,3R)-N-(7-chloro-6-(4-((3R,4R or 3S,4S)-4-hydroxy-3-methyltetrahydrofuran-3-yl)piperazin-1-yl)isoquinolin-3-yl)-5-oxaspiro[2.5]octane-1-carboxamide]",776
28,"CC1(N2CCN(c3cc4cc(NC(=O)C5CC56CC6)ncc4cc3Cl)CC2)COCC1O (single isomer, unassigned) [Ex-2.15, (R or S)-N-(7-chloro-6-(4-((3R,4R or 3S,4S)-4-hydroxy-3-methyltetrahydrofuran-3-yl)piperazin-1-yl)isoquinolin-3-yl)spiro[2.2]pentane-1-carboxamide]",30.2
29,"Cc1cc2cnc(NC(=O)C3C(C)C3c3cnn(C)c3)cc2cc1N1CCN(C2(C)CCOC2)CC1 (single isomer, unassigned) [Ex-9.12]",0.0813
